The subject of this test is KIT/PDGFRA-mutated cell lines. The experiment in a line: Cell viability assay (GR50). The test is classed as cell-based. Particulars: Figure 2. The protocol:
Cell viability assays were performed as previously described (Grunewald, S., et al., Resistance to avapritinib in PDGFRA-driven GIST is caused by secondary mutations in the PDGFRA kinase domain. Cancer Discov, 2020). To generate the results presented in Figures 2 and 3, cells were plated at 4000-16000 cells/well in a 96-well plate and cultured overnight. Cells were then incubated in triplicates with media containing inhibitors or solvent control (DMSO) for 72 hours. The sulforhodamine B (SRB) assay was used according to the method of Skehan and colleagues (Skehan, P., et al., New colorimetric cytotoxicity assay for anticancer-drug screening. J.Natl.Cancer Inst., 1990. 82(13): p. 1107-1112).
To generate the results in for the KIT-driven cell lines (GIST-T1; T1-D816E, and T1-V654A) in Figures 1, 6, 7, and 8, cells were plated in triplicates at 400 cells/well in a 384-well plate with media containing inhibitors or solvent control (DMSO) and incubated for 72 hours. The Cell Titer Glo assay (Promega) was applied according to manufacturer's instructions. Absorption or luminescence was measured with a SPARK™ Plate reader (Tecan, Switzerland). One measurement of untreated cells at the at the start of treatment served as baseline for growth reduction (GR) calculations. […]

With `NC(=O)Nc1cc(-c2cccc(F)c2)sc1C(=O)N[C@H]1CCCNC1` [Preparation Example 3a.1, (S)-5-(3-fluorophenyl)-N-(piperidin-3-yl)-3-ureidothiophene-2-carboxamide], the “cellular GR50 (concentration of a drug that reduces cell growth rate by half)” value lay within 1 to 30 nM.

The values above are taken from patent EP4552639A1, “COMPOUNDS FOR USE IN THE TREATMENT OF GASTROINTESTINAL STROMAL TUMOR (GIST)” (priority 2023, dated 2025).
